Results: PMC6324813, “Biological evaluation of isoflavonoids from Genista halacsyi using estrogen-target cells: Activities of glucosides compared to aglycones” (PLoS ONE, 2019)

Assays:
MC3T3-E1 cells = test: Differentiation of MC3T3-E1 cells to osteoblasts, AlkP activity; format: cell-based, mouse; settings: DF + E2 1 nM or compound 1 μM; 6 days; DF plus vehicle = 100
Description: Differentiation of MC3T3-E1 cells was carried out in 96-well plates using 3,300 cells per well and was assessed via induction of, i) Alkaline Phosphatase (AlkP) activity after 6 days of treatment and, ii) mineralization of extracellular matrix after 21 days of treatment. Briefly, 24 h after plating, the cells were incubated with test compounds or vehicle i.e. the compound diluent (0.1% DMSO) and then exposed for 6 days to differentiation medium in presence or absence of differentiation factors (cf. Cell culture) with a change to fresh compounds and medium in 3 days. AlkP activity was assessed at 405 nm in a Safire II microplate reader using as substrate p-nitrophenyl-phosphate (pNPP, Sigma-Aldrich) as already described. Mineralization of MC3T3 cells was assessed by staining with Alizarin red (Fluka). Cells were cultured and treated as described above for 21 days, with media and test compounds changed every 3 days, and calcium phosphate deposition was assayed as described by Gregory et al.. Briefly, the cells were washed twice with PBS and fixed with 70% ethanol for 15 min on ice. The cells were stained with Alizarin red solution (40 mM, pH 4.2) for 30 min at room temperature, washed twice with distilled water and once with PBS. The dye from the stained mineral deposits was extracted with 33% acetic acid and the absorbance was measured at 405 nm using a Safire II microplate reader (Tecan).

ERα [1] = target: T1, ERα (Homo sapiens, UniProt P03372); test: ERE-dependent luciferase gene transcription in MCF-7:D5L cells; format: cell-based; design: MCF-7:D5L cells, a clone of MCF-7 cells stably transfected with an Estrogen Response Element (ERE)-endowed reporter plasmid; endogenous in cells; host or cells: MCF-7:D5L (MCF-7 clone carrying pERE-Gl-Luciferase)
T1 sequence (P03372 1-595): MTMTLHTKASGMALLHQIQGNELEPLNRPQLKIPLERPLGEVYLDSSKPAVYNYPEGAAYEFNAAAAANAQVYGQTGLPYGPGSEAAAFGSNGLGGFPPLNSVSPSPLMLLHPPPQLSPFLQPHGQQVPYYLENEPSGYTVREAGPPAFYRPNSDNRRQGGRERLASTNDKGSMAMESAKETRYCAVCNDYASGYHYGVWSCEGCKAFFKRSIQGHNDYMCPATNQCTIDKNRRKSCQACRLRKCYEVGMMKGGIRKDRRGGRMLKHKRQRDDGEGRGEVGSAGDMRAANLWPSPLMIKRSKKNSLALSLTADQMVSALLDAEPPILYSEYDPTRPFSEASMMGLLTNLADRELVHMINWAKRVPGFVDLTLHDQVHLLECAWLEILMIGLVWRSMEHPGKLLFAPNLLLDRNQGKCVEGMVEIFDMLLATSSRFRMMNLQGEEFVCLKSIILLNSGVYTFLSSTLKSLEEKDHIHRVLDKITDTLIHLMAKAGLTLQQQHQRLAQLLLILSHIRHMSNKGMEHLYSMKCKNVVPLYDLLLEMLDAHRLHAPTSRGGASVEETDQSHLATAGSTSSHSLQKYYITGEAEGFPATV
Description: Assessment of ER/ERE-dependent luciferase gene transcription in MCF-7:D5L (express ERα) and HEK:ERβ cells (express ERβ) and determination of ER transcriptional agonism was carried as already described. Briefly, the cells were plated in 96-well plates at a density of 12,000 cells per well in phenol-red-free MEM (MCF-7:D5L cells) or phenol-red-free DMEM (HEK:ERβ cells) supplemented with 1 μg/mL insulin and 5% DCC-FBS. […] The AUC of the isoflavonoids of each group were then expressed as % of the AUC of the respective archetypal isoflavone. Since AUC data combine the efficacy as well as the potency of cell response into a single parameter, the %AUC data were considered here as a more reliable measure of relative ER/ERE-dependent luciferase expression of the test compounds.

MCF-7 cells = test: MCF-7 cell proliferation (MTT); format: cell-based, human; settings: Homo sapiens, MCF7, 72 h; read-out: Induction of cell proliferation (MCF-7 cells) Agonism at 1μΜ (% of 0.1nM E2)
Description: Test compound effects on the proliferation of MCF-7 and MDA-MB-231 cells were assessed as previously described.

ERβ [2] = target: T2, ERβ (Homo sapiens, UniProt Q92731); design: purchased Invitrogen; settings: cited from earlier work
T2 sequence (Q92731 whole entry): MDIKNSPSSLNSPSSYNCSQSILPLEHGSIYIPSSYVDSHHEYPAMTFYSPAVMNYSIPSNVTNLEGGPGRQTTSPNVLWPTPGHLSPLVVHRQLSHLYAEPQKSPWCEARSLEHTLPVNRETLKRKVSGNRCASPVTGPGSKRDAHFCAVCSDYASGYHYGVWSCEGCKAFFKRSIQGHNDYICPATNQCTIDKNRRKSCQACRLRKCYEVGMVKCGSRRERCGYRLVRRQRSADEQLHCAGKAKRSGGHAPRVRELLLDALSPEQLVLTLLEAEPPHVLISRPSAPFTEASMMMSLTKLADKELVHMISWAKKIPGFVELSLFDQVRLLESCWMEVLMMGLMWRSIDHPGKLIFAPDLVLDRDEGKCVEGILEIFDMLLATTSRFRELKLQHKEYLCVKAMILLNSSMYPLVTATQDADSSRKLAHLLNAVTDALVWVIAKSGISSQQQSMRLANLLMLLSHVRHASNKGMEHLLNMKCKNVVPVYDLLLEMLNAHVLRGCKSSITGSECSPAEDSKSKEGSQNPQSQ

ERα [3] = target: T1, ERα; design: purchased Invitrogen; settings: cited from earlier work
ERβ [4] = target: T2, ERβ; test: ER binding competitor assay (fluorescent estrogen ES2), ERβ; design: purchased Invitrogen

## O=c1c(-c2ccc(OC3O[C@H](CO)[C@@H](O)[C@H](O)[C@H]3O)cc2)coc2cc(OC3O[C@H](CO)[C@@H](O)[C@H](O)[C@H]3O)cc(O)c12 (stereo partly shown) [Compound 11, 7,4΄-di-O-glucopyranosylgenistein]
MC3T3-E1 cells
  Differentiation of MC3T3-E1 cells, AlkP expression (%): 120±6 %
ERα [1]; % of AUC of luciferase response of archetypal 3, 4, 5 or 8 up to 0.3, 10, 1.0 and 3.0 μM
  Induction of ERE-dependent Luciferase Transcription (MCF-7:D5L cells) AUC (%): 75±6%
ERα [1]; compounds 1 μM, estradiol 0.1 nM, 18 h
  Induction of luciferase gene transcription through ERα, MCF-7:D5L cells, Agonism at 1μΜ (% of 0.1nM E2): 114 ± 4 (Full) % of 0.1nM E2
ERα [1]; concentration required to achieve 25% of the effect of 0.1 nM E2
  Induction of ERE-dependent Luciferase Transcription (MCF-7:D5L cells) EC25E2: 0.04 ± 0.01 µM
ERα [1]; concentration required to achieve 50% of the effect of 0.1 nM E2, read-out: Induction of ERE-dependent Luciferase Transcription (MCF-7:D5L cells) EC50E2
  EC50: 0.15 ± 0.03 µM
ERα [1]; isoflavonoids 1 μM, statistically significant effects
  ERα-dependent gene transcription agonist effect compared to the effect of 0.1 nM estradiol: very similar to estradiol
MCF-7 cells
  activation at 1 µM: 79 ± 5%

## O=c1c(-c2ccc(O)cc2)coc2cc(O[C@@H]3O[C@H](CO)[C@@H](O)[C@H](O)[C@H]3O)cc(O)c12 [Compound 12, 7-O-β-D-glucopyranosyl-genistein]
ERβ [2]
  mean value (and the range) of previously reported RBAβ: < 0.01
MC3T3-E1 cells
  Differentiation of MC3T3-E1 cells, AlkP expression (%): 125±8 %
MCF-7 cells
  activation at 1 µM: 79 ± 9%
ERα [3]
  mean value (and the range) of previously reported RBAα: < 0.01
ERβ [4]; ERβ-binding selectivity
  RBAβ / RBAα: 1.75
ERβ [4]; RBA = (IC50 estradiol/IC50 compound) × 100, ES2 1 nM, estradiol set equal to 100
  RBAβ: 0.07 ± 0.02
